According to publication PMC6979384, “Characterization of the plant homeodomain (PHD) reader family for their histone tail interactions” (Epigenetics & Chromatin, 2020):

Columns and labels:
Assay in all cases: Histone peptide microarray
Type in all cases: binding, human
Details in all cases: histone peptide array
PHF23 = tested on: PHF23
Procedure, shortened: (§1)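 Binding of recombinant GST-fused PHD readers (0.5 μM) is detected on an array of 293 histone peptides, modified singly or in combination. An optimized array protocol is followed, and each intensity is the average of quadruplicate measurements with standard deviation.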

TAF3 = tested on: TAF3
Procedure, shortened: as §1

PHRF1 (RP) = tested on: PHRF1 (RP)
Procedure, shortened: as §1

KDM5A (1) = tested on: KDM5A (1)
Procedure, shortened: as §1

BAZ2B = tested on: BAZ2B
Procedure, shortened: as §1

MLL5 = tested on: MLL5
Procedure, shortened: as §1

SP140L = tested on: SP140L
Procedure, shortened: as §1

PHF8 = tested on: PHF8
Procedure, shortened: as §1

ING4 = tested on: ING4
Procedure, shortened: as §1

TRIM66 (PB) = tested on: TRIM66 (PB)
Procedure, shortened: as §1

AIRE (PP) = tested on: AIRE (PP)
Procedure, shortened: as §1

BPTF (PB) = tested on: BPTF (PB)
Procedure, shortened: as §1

KDM4C (TTP) = tested on: KDM4C (TTP)
Procedure, shortened: as §1

RAG2 = tested on: RAG2
Procedure, shortened: as §1

PHF13 = tested on: PHF13
Procedure, shortened: as §1

PHF2 = tested on: PHF2
Procedure, shortened: as §1

ING5 = tested on: ING5
Procedure, shortened: as §1

CHD5 (PCC) = tested on: CHD5 (PCC)
Procedure, shortened: as §1

ING2 = tested on: ING2
Procedure, shortened: as §1

ING3 = tested on: ING3
Procedure, shortened: as §1

KDM5B (1) = tested on: KDM5B (1)
Procedure, shortened: as §1

CHD5 (PPCC) = tested on: CHD5 (PPCC)
Procedure, shortened: as §1

DIDO1 = tested on: DIDO1
Procedure, shortened: as §1

PHF21A = tested on: PHF21A
Procedure, shortened: as §1

MORC3 (CW) = tested on: MORC3 (CW)
Procedure, shortened: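 Readout is array binding signal, reported as the mean and standard deviation over four replicates. Each purified GST-fused PHD domain was incubated at 0.5 μM with a library of 293 modified histone peptides.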

KDM5A (3) = tested on: KDM5A (3)
Procedure, shortened: as §1

DPF2 (PPC2W2) = tested on: DPF2 (PPC2W2)
Procedure, shortened: as §1

KDM5B (3) = tested on: KDM5B (3)
Procedure, shortened: as §1

CHD4 (PPCC) = tested on: CHD4 (PPCC)
Procedure, shortened: as §1

KDM7A = tested on: KDM7A
Procedure, shortened: as §1

ING1 = tested on: ING1
Procedure, shortened: as §1

[1] = sheet "Array Heatmap", GST-tagged reader, total n = 4

H3T3p: H3 1-20 [Peptide H3T3p]
Array Heatmap signal, PHF23 (PHF23; GST-tagged PHF23, arrays performed twice, n of 4): 0.4911 | Array Heatmap signal, PHF23 (PHF23; [1]): 0.575 | Array Heatmap signal, TAF3 (TAF3; GST-tagged TAF3, arrays performed twice, n of 4): 0.2971 | Array Heatmap signal, TAF3 (TAF3; [1]): 0.3113 | Array Heatmap signal, PHRF1 (RP) (PHRF1 (RP); GST-tagged PHRF1 (RP), arrays performed twice, n of 4): 0.4037 | Array Heatmap signal, PHRF1 (RP) (PHRF1 (RP); [1]): 0.5425 | Array Heatmap signal, KDM5A (1) (KDM5A (1); GST-tagged KDM5A (1), arrays performed twice, n of 4): 0.4969 | Array Heatmap signal, KDM5A (1) (KDM5A (1); [1]): 0.535 | Array Heatmap signal, BAZ2B (BAZ2B; GST-tagged BAZ2B, arrays performed twice, n of 4): 0.469 | Array Heatmap signal, BAZ2B (BAZ2B; [1]): 0.5253 | Array Heatmap signal, MLL5 (MLL5; GST-tagged MLL5, arrays performed twice, n of 4): 0.5378 | Array Heatmap signal, MLL5 (MLL5; [1]): 0.5888 | Array Heatmap signal, SP140L (SP140L; GST-tagged SP140L, arrays performed twice, n of 4): 0.3332 | Array Heatmap signal, SP140L (SP140L; [1]): 0.3882 | Array Heatmap signal, PHF8 (PHF8; GST-tagged PHF8, arrays performed twice, n of 4): 0.352 | Array Heatmap signal, PHF8 (PHF8; [1]): 0.4275 | Array Heatmap signal, ING4 (ING4; GST-tagged ING4, arrays performed twice, n of 4): 0.4601 | Array Heatmap signal, ING4 (ING4; [1]): 0.5373 | Array Heatmap signal, TRIM66 (PB) (TRIM66 (PB); GST-tagged TRIM66 (PB = PHD + Bromodomain), arrays performed twice, n of 4): 0.6313 | Array Heatmap signal, TRIM66 (PB) (TRIM66 (PB); [1]): 0.6558 | Array Heatmap signal, AIRE (PP) (AIRE (PP); GST-tagged AIRE (PP), arrays performed twice, n of 4): 0.5392 | Array Heatmap signal, AIRE (PP) (AIRE (PP); [1]): 0.548 | Array Heatmap signal, BPTF (PB) (BPTF (PB); GST-tagged BPTF (PB = PHD + Bromodomain), arrays performed twice, n of 4): 0.3368 | Array Heatmap signal, BPTF (PB) (BPTF (PB); [1]): 0.3878 | Array Heatmap signal, KDM4C (TTP) (KDM4C (TTP); GST-tagged KDM4C (TTP = Tandem Tudor domain + PHD), arrays performed twice, n of 4): 0.5211 | Array Heatmap signal, KDM4C (TTP) (KDM4C (TTP); [1]): 0.5646 | Array Heatmap signal, RAG2 (RAG2; GST-tagged RAG2, arrays performed twice, n of 4): 0.2333 | Array Heatmap signal, RAG2 (RAG2; [1]): 0.2772 | Array Heatmap signal, PHF13 (PHF13; GST-tagged PHF13, arrays performed twice, n of 4): 0.5934 | Array Heatmap signal, PHF13 (PHF13; [1]): 0.6741 | Array Heatmap signal, PHF2 (PHF2; GST-tagged PHF2, arrays performed twice, n of 4): 0.434 | Array Heatmap signal, PHF2 (PHF2; [1]): 0.5551 | Array Heatmap signal, ING5 (ING5; GST-tagged ING5, arrays performed twice, n of 4): 0.3543 | Array Heatmap signal, ING5 (ING5; [1]): 0.4158 | Array Heatmap signal, CHD5 (PCC) (CHD5 (PCC); GST-tagged CHD5 (PCC = PHD + Dual Chromodomain), arrays performed twice, n of 4): 0.8206 | Array Heatmap signal, CHD5 (PCC) (CHD5 (PCC); [1]): 0.8423 | Array Heatmap signal, ING2 (ING2; GST-tagged ING2, arrays performed twice, n of 4): 0.5798 | Array Heatmap signal, ING2 (ING2; [1]): 0.6196 | Array Heatmap signal, ING3 (ING3; GST-tagged ING3, arrays performed twice, n of 4): 0.4483 | Array Heatmap signal, ING3 (ING3; [1]): 0.5306 | Array Heatmap signal, KDM5B (1) (KDM5B (1); GST-tagged KDM5B (1), arrays performed twice, n of 4): 0.6719 | Array Heatmap signal, KDM5B (1) (KDM5B (1); [1]): 0.685 | Array Heatmap signal, CHD5 (PPCC) (CHD5 (PPCC); GST-tagged CHD5 (PPCC = Dual PHD + Dual Chromodomain), arrays performed twice, n of 4): 0.549 | Array Heatmap signal, CHD5 (PPCC) (CHD5 (PPCC); [1]): 0.6245 | Array Heatmap signal, DIDO1 (DIDO1; GST-tagged DIDO1, arrays performed twice, n of 4): 0.6402 | Array Heatmap signal, DIDO1 (DIDO1; [1]): 0.7808 | Array Heatmap signal, PHF21A (PHF21A; GST-tagged PHF21A, arrays performed twice, n of 4): 0.4766 | Array Heatmap signal, PHF21A (PHF21A; [1]): 0.5237 | Array Heatmap signal, MORC3 (CW) (MORC3 (CW); GST-tagged MORC3 (CW = CW-type Zn-finger), arrays performed twice, n of 4): 0.3786 | Array Heatmap signal, MORC3 (CW) (MORC3 (CW); [1]): 0.4886 | Array Heatmap signal, KDM5A (3) (KDM5A (3); GST-tagged KDM5A (3), arrays performed twice, n of 4): 0.3913 | Array Heatmap signal, KDM5A (3) (KDM5A (3); [1]): 0.4935 | Array Heatmap signal, DPF2 (PPC2W2) (DPF2 (PPC2W2); GST-tagged DPF2 (PPC2W2 = Dual PHD + C2W2-type Zn-finger), arrays performed twice, n of 4): 0.671 | Array Heatmap signal, DPF2 (PPC2W2) (DPF2 (PPC2W2); [1]): 0.7196 | Array Heatmap signal, KDM5B (3) (KDM5B (3); GST-tagged KDM5B (3), arrays performed twice, n of 4): 0.5071 | Array Heatmap signal, KDM5B (3) (KDM5B (3); [1]): 0.5631 | Array Heatmap signal, CHD4 (PPCC) (CHD4 (PPCC); GST-tagged CHD4 (PPCC = Dual PHD + Dual Chromodomain), arrays performed twice, n of 4): 0.5719 | Array Heatmap signal, CHD4 (PPCC) (CHD4 (PPCC); [1]): 0.6586 | Array Heatmap signal, KDM7A (KDM7A; GST-tagged KDM7A, arrays performed twice, n of 4): 0.4522 | Array Heatmap signal, KDM7A (KDM7A; [1]): 0.4256 | Array Heatmap signal, ING1 (ING1; GST-tagged ING1, arrays performed twice, n of 4): 0.5096 | Array Heatmap signal, ING1 (ING1; [1]): 0.5929

H3T6p + K9ac + K14ac + K18ac: H3 1-20
Array Heatmap signal, PHF23 (PHF23; [1]): 0.5587 | Array Heatmap signal, TAF3 (TAF3; [1]): 0.2973 | Array Heatmap signal, PHRF1 (RP) (PHRF1 (RP); [1]): 0.4494 | Array Heatmap signal, KDM5A (1) (KDM5A (1); [1]): 0.5024 | Array Heatmap signal, BAZ2B (BAZ2B; [1]): 0.5434 | Array Heatmap signal, MLL5 (MLL5; [1]): 0.6174 | Array Heatmap signal, SP140L (SP140L; [1]): 0.3823 | Array Heatmap signal, PHF8 (PHF8; [1]): 0.3706 | Array Heatmap signal, ING4 (ING4; [1]): 0.4858 | Array Heatmap signal, TRIM66 (PB) (TRIM66 (PB); [1]): 0.6292 | Array Heatmap signal, AIRE (PP) (AIRE (PP); [1]): 0.4905 | Array Heatmap signal, BPTF (PB) (BPTF (PB); [1]): 0.3772 | Array Heatmap signal, KDM4C (TTP) (KDM4C (TTP); [1]): 0.5471 | Array Heatmap signal, RAG2 (RAG2; [1]): 0.2892 | Array Heatmap signal, PHF13 (PHF13; [1]): 0.6581 | Array Heatmap signal, PHF2 (PHF2; [1]): 0.4724 | Array Heatmap signal, ING5 (ING5; [1]): 0.4002 | Array Heatmap signal, CHD5 (PCC) (CHD5 (PCC); [1]): 0.8634 | Array Heatmap signal, ING2 (ING2; [1]): 0.6332 | Array Heatmap signal, ING3 (ING3; [1]): 0.5178 | Array Heatmap signal, KDM5B (1) (KDM5B (1); [1]): 0.6556 | Array Heatmap signal, CHD5 (PPCC) (CHD5 (PPCC); [1]): 0.5917 | Array Heatmap signal, DIDO1 (DIDO1; [1]): 0.7306 | Array Heatmap signal, PHF21A (PHF21A; [1]): 0.4965 | Array Heatmap signal, MORC3 (CW) (MORC3 (CW); [1]): 0.436 | Array Heatmap signal, KDM5A (3) (KDM5A (3); [1]): 0.5014 | Array Heatmap signal, DPF2 (PPC2W2) (DPF2 (PPC2W2); [1]): 0.6625 | Array Heatmap signal, KDM5B (3) (KDM5B (3); [1]): 0.5165 | Array Heatmap signal, CHD4 (PPCC) (CHD4 (PPCC); [1]): 0.6105 | Array Heatmap signal, KDM7A (KDM7A; [1]): 0.5379 | Array Heatmap signal, ING1 (ING1; [1]): 0.5258
